Values of other authors, collected in Sander's compilation of Henry's law constants (doi:10.1007/978-94-007-2275-0).

Assay: Henry solubility constant Hcp at 298.15 K (mol/(m3 Pa))
Conditions: reference: Warneck and Williams (2012); cited value

Row | Compound | Henry solubility constant Hcp
1 | FC(F)(Cl)Cl [dichlorodifluoromethane] | 3e-05
2 | S=C=S [carbon disulfide] | 0.00061
3 | O=C=S [carbon oxide sulfide] | 0.00021
4 | O=O [oxygen] | 1.2e-05
5 | CSC [dimethyl sulfide] | 0.0056
6 | FC(F)(F)F [tetrafluoromethane] | 2.1e-06
7 | CC(=O)OO[N+](=O)[O-] [peroxyacetyl nitrate] | 0.029
8 | COO [methyl hydroperoxide] | 2.9
9 | [C-]#[O+] [carbon monoxide] | 9.7e-06

Now from value to molecule:

Row | Henry solubility constant Hcp | Compound
10 | 2.4e-06 | FS(F)(F)(F)(F)F [sulfur hexafluoride]
11 | 0.00024 | [N-]=[N+]=O [dinitrogen monoxide]
12 | 910 | OO [hydrogen peroxide]
13 | 1.4e-05 | [Ar] [argon]
14 | 1.9e-05 | [N]=O [nitrogen monoxide]
15 | 9.9e-05 | [O]N=O [nitrogen dioxide]
